Values quoted from earlier work, collected in patent US20170306503A1, “SYNTHETIC ACID COMPOSITIONS ALTERNATIVES TO CONVENTIONAL ACIDS IN THE OIL AND GAS INDUSTRY” (FLUID ENERGY GROUP LTD, priority 2014, published 2017).

Settings: gas exposure, death in 2-3 minutes

## Cl [Hydrogen chloride gas, Hydrogen chloride]
  level at which death can occur: 1300-2000 PPM
